One test has as its system CYPRO. The test can be described thus: In-water applied, transplanted paddy rice weeds (Example II). It is filed as in vivo, Cyperus rotundus L. The protocol: Weed seeds or nutlets of the desired test plant species were planted in puddled soil (mud) prepared by mixing a shredded, non-sterilized mineral soil (50.5 percent silt, 25.5 percent clay, and 24 percent sand, with a pH of about 7.6 and an organic matter content of about 2.9 percent) and water at a 1:1 volumetric ratio. The prepared mud was dispensed in 365 mL aliquots into 16-ounce (oz.) non-perforated plastic pots with a surface area of 86.59 square centimeters (cm^2) leaving a headspace of 3 centimeters (cm) in each pot. Mud was allowed to dry overnight prior to planting or transplanting. Rice seeds were planted in Sun Gro MetroMix® 306 planting mixture, which typically has a pH of about 6.0 to about 6.8 and an organic matter content of about 30 percent, in plastic plug trays. Seedlings at the second or third leaf stage of growth were transplanted into 860 mL of mud contained in 32-oz. non-perforated plastic pots with a surface area of 86.59 cm^2 4 days prior to herbicide application. The paddy was created by filling the headspace of the pots with 2.5 to 3 cm of water. When required to ensure good germination and healthy plants, a fungicide treatment and/or other chemical or physical treatment was applied. The plants were grown for 4-22 days in a greenhouse with an approximate 14 h photoperiod which was maintained at about 29° C. during the day and about 26° C. during the night. Nutrients were added as Osmocote® (19:6:12, N:P:K+minor nutrients) at 2 g per 16-oz. pot and 4 g per 32-oz. pot. […]
Treatment requirements for each compound or herbicidal component were calculated based upon the rates being tested, the concentration of active ingredient or acid equivalent in the formulation, an application volume of 2 mL per component per pot, and an application area of 86.59 cm^2 per pot.
For formulated compounds, a measured amount was placed in an individual 100 or 200 mL glass vial and was dissolved in a volume of 1.25% (v/v) Agri-Dex® crop oil concentrate to obtain application solutions. […]

Another test deals with CHEAL. The test can be described thus: Postemergence herbicidal activity in cereal crops, greenhouse (Example V). The test is classed as in vivo, Chenopodium album L. The protocol: (§1) Seeds of the desired test plant species were planted in Sun Gro MetroMix® 306 planting mixture, which typically has a pH of 6.0 to 6.8 and an organic matter content of about 30 percent, in plastic pots with a surface area of 103.2 square centimeters (cm^2). When required to ensure good germination and healthy plants, a fungicide treatment and/or other chemical or physical treatment was applied. The plants were grown for 7-36 days in a greenhouse with an approximate 14 hour photoperiod which was maintained at about 18° C. during the day and about 17° C. during the night. Nutrients and water were added on a regular basis and supplemental lighting was provided with overhead metal halide 1000-Watt lamps as necessary. The plants were employed for testing when they reached the second or third true leaf stage.
(§2) Treatments consisted of the benzyl ester of 4-amino-3-chloro-5-fluoro-6-(4-chloro-2-fluoro-3-methoxy-phenyl)pyridine-2-carboxylic acid (Compound A), formulated as an SC, a second cereal herbicide alone and then both in combination.
(§3) Other herbicidal components were applied on an acid equivalent basis and include acetolactate synthase (ALS)-inhibiting herbicides (imidazolinone chemical class) imazamethabenz-methyl formulated as Assert®. Spray solutions of the second cereal herbicide and experimental compound mixtures were prepared by adding the stock solutions to the appropriate amount of dilution solution to form 12 mL spray solution with active ingredients in two- and three-way combinations. […]
(§4) The treated plants and control plants were placed in a greenhouse as described above and watered by sub-irrigation to prevent wash-off of the test compounds. After 20-22 days, the condition of the test plants as compared with that of the control plants was determined visually and scored on a scale of 0 to 100 percent where 0 corresponds to no injury and 100 corresponds to complete kill. […]

Another test relates to PAPRH. Described as above. The test is classed as in vivo, Papaver rhoeas L. As to the method:
as §1, §2, §3, §4

The subject of a further test is SASKR. The test is described as above. It is filed as in vivo, Salsola iberica L. As to the method:
as §1, §2, §3, §4

A further test relates to VERPE. Described as above. The test is classed as in vivo, Veronica persica Poir. As to the method: as §1, §2, §3, §4
The mark [1] stands for this setting: Compound A Benzyl Ester 2 gae/ha.
[2] abbreviates: Compound A Benzyl Ester 4 gae/ha.

As to `COc1c(Cl)ccc(-c2nc(C(=O)O)c(Cl)c(N)c2F)c1F` [Compound A Acid, 4-amino-3-chloro-6-(4-chloro-2-fluoro-3-methoxyphenyl)-5-fluoropyridine-2-carboxylic acid], the “Visual Weed Control (%) - 22 DAA CYPRO Obs” value was found to be 0% in the test on CYPRO (Compound A Acid 10.6 gae/ha) and 40% in the test on CYPRO (Compound A Acid 21.2 gae/ha).

As to `COc1c(Cl)ccc(-c2nc(C(=O)OCc3ccccc3)c(Cl)c(N)c2F)c1F` [Compound A Benzyl Ester, benzyl ester of 4-amino-3-chloro-5-fluoro-6-(4-chloro-2-fluoro-3-methoxy-phenyl)pyridine-2-carboxylic acid], the “Visual Weed Control (%) - 21 DAA CHEAL Obs” value in the test with CHEAL (setting [1]) turned out to be 50%; in the test with CHEAL (setting [2]), 60%. Also, the “Visual Weed Control (%) - 21 DAA PAPRH Obs” value stood at 20% in the test with PAPRH (setting [1]) and 70% with PAPRH (setting [2]). The “Visual Weed Control (%) - 21 DAA SASKR Obs” value was 10% in the test with SASKR (setting [1]) and 60% in the test with SASKR (setting [2]). Moreover, the “Visual Weed Control (%) - 21 DAA VERPE Obs” value came out at 0% with VERPE (setting [1]) and 5% with VERPE (setting [2]).
